Experiment [1] concerns Tetranychus cinnabarinus mite larvae. Put plainly: Larvicidal activity test, dipping method on bean seedling leaves. The class given is in vivo. Particulars: for mortality at 100 µg/mL / mortality at 200 µg/mL / mortality at 10 µg/mL / mortality at 1 µg/mL / mortality at 0.01 µg/mL / mortality at 0.05 µg/mL / mortality at 0.1 µg/mL: Tetranychus cinnabarinus, 96 h, checked after 4 days; for mortality at 100 µg/mL: read-out: mortality of mite larvae (%), 100 mg/L; for mortality at 200 µg/mL: read-out: mortality of mite larvae (%), 200 mg/L; for mortality at 10 µg/mL: read-out: mortality of mite larvae (%), 10 mg/L; for mortality at 1 µg/mL: read-out: mortality of mite larvae (%), 1 mg/L; for acaricidal activity compared with etoxazole: Tetranychus cinnabarinus eggs and larvae, etoxazole as reference; for mortality at 0.01 µg/mL: read-out: mortality of mite larvae (%), 0.01 mg/L; for mortality at 0.05 µg/mL: read-out: mortality of mite larvae (%), 0.05 mg/L; for mortality at 0.1 µg/mL: read-out: mortality of mite larvae (%), 0.1 mg/L. From the text: (§1) The assay examples are used to illustrate the acaricidal activity against Tetranychus cinnabarinus (mortality of mite larvae and mortality of mite eggs) of the compounds having the structure represented by formula (I), and the results are shown in tables 1 to 9, where mortality of mite larvae % =(number of dead mite larvae applied/total number of mite larvae applied)×100, and mortality of mite eggs %= (number of dead mite eggs applied/total number of mite eggs applied)×100.
Tetranychus cinnabarinus bred indoors on bean seedlings was used as a test subject by the dipping method. Move adult mites onto the newly grown complete bean seedling leaves with two leaves, cut off the bean seedlings, place the bean seedlings in a greenhouse with illumination at 25° C. for laying eggs for 24 hours, then remove adult mites and keep mite eggs. And continuously culture in the greenhouse for 5 days until mite eggs hatch into mite larvae (ensuring that the number of the mites on each tested leaf is not less than 60).
Completely immerse the bean seedling leaves containing the mite larvae into the sample solution to be detected with Tween at the prepared concentration for 5-6 seconds by using tweezers, slightly throw off residual liquid, put the bean seedling leaves back to the culture cup, continuously culture for 4 days and check the result. One of the plants was immersed in a solution containing no sample to be tested and the remaining additives were identical to the sample solution as a blank control. Each compound was replicated three times.

The test system of experiment [2] is Tetranychus cinnabarinus mite eggs. Put plainly: Activity against mite eggs, dipping method on bean seedling leaves. The class given is in vivo. The settings on record: for mortality at 1 µg/mL / mortality at 10 µg/mL / mortality at 100 µg/mL / mortality at 200 µg/mL / mortality at 0.01 µg/mL / mortality at 0.05 µg/mL / mortality at 0.1 µg/mL: Tetranychus cinnabarinus, 96 h, checked after 4 days; for mortality at 1 µg/mL: read-out: mortality of mite eggs (%), 1 mg/L; for mortality at 10 µg/mL: read-out: mortality of mite eggs (%), 10 mg/L; for mortality at 100 µg/mL: read-out: mortality of mite eggs (%), 100 mg/L; for mortality at 200 µg/mL: read-out: mortality of mite eggs (%), 200 mg/L; for mortality at 0.01 µg/mL: read-out: mortality of mite eggs (%), 0.01 mg/L; for mortality at 0.05 µg/mL: read-out: mortality of mite eggs (%), 0.05 mg/L; for mortality at 0.1 µg/mL: read-out: mortality of mite eggs (%), 0.1 mg/L.
Excerpt: as §1
Tetranychus cinnabarinus bred indoors on bean seedlings was used as a test subject by the dipping method. Move female adult mites onto the newly grown complete bean seedling leaves with two leaves, cut off the bean seedlings, place the bean seedlings in a greenhouse with illumination at 25° C. for laying eggs for 24 hours, then remove adult mites and keep mite eggs. After continuously culturing in the greenhouse for one day, completely soak the bean seedling leaves containing the acarid eggs into the prepared sample solution to be tested for 5-6 seconds by using tweezers, slightly throw off residual liquid, put the bean seedling leaves back to the culture cup, continuously culture for 4 days and then check the result. One of the plants was immersed in a solution containing no sample to be tested and the remaining additives were identical to the sample solution as a blank control. Each compound was replicated three times.

On to `Fc1cccc(F)c1C1=NC(c2ccc(CN3CCCC3)cc2)CO1` (stereo not drawn) [Compound R1-1], for which, in experiment [1], the mortality at 100 µg/mL came to 50% and the mortality at 200 µg/mL was determined as 70%. For the same molecule, in experiment [2], the mortality at 1 µg/mL is 30%, the mortality at 10 µg/mL was 60%, the mortality at 100 µg/mL worked out at 70% and the mortality at 200 µg/mL is 95%.
On to `Fc1cccc(F)c1C1=NC(c2ccc(CN3CCCCCC3)cc2)CO1` (stereo not drawn) [Compound R1-2], for which, in experiment [1], the mortality at 10 µg/mL was 35%, the mortality at 100 µg/mL was found to be 75% and the mortality at 200 µg/mL worked out at 90%. Moreover, in experiment [2], the mortality at 10 µg/mL was found to be 55%, the mortality at 100 µg/mL amounted to 80% and the mortality at 200 µg/mL was determined as 95%.
Turning to `Fc1cccc(F)c1C1=NC(c2ccc(CN3CCCCCCC3)cc2)CO1` (stereo not drawn) [Compound R1-3], in experiment [1], the mortality at 1 µg/mL was found to be 55%, the mortality at 10 µg/mL was 70%, the mortality at 100 µg/mL was determined as 95% and the mortality at 200 µg/mL came out at 100%. In addition, in experiment [2], the mortality at 1 µg/mL came out at 55%, the mortality at 10 µg/mL was 70%, the mortality at 100 µg/mL was 90% and the mortality at 200 µg/mL is 100%.
In the case of `Fc1cccc(F)c1C1=NC(c2ccc(CN3CCOCC3)cc2)CO1` (stereo not drawn) [Compound R1-4], in experiment [1], the mortality at 10 µg/mL came out at 30%, the mortality at 100 µg/mL is 70% and the mortality at 200 µg/mL is 90%. In addition, in experiment [2], the mortality at 10 µg/mL amounted to 50%, the mortality at 100 µg/mL worked out at 70% and the mortality at 200 µg/mL worked out at 90%.
Take `Fc1cccc(F)c1C1=NC(c2ccc(Cn3cccc3)cc2)CO1` (stereo not drawn) [Compound R1-5]: in experiment [1], the mortality at 10 µg/mL came out at 40%, the mortality at 100 µg/mL turned out to be 90% and the mortality at 200 µg/mL worked out at 100%. Moreover, in experiment [2], the mortality at 10 µg/mL was found to be 45%, the mortality at 100 µg/mL came out at 100% and the mortality at 200 µg/mL was found to be 100%.
Consider `Fc1cccc(F)c1C1=NC(c2ccc(CN3CC=CC3)cc2)CO1` (stereo not drawn) [Compound R1-6], for which, in experiment [1], the mortality at 1 µg/mL stood at 50%, the mortality at 10 µg/mL was 70%, the mortality at 100 µg/mL was determined as 100% and the mortality at 200 µg/mL is 100%. In experiment [2], the mortality at 1 µg/mL was determined as 50%, the mortality at 10 µg/mL came out at 70%, the mortality at 100 µg/mL came out at 100% and the mortality at 200 µg/mL was 100%.
Turning to `CC(=O)N1CCN(Cc2ccc(C3COC(c4c(F)cccc4F)=N3)cc2)C1=O` (stereo not drawn) [Compound R1-8], in experiment [1], the mortality at 1 µg/mL is 35%, the mortality at 10 µg/mL worked out at 65%, the mortality at 100 µg/mL was 95% and the mortality at 200 µg/mL was determined as 100%. For the same molecule, in experiment [2], the mortality at 10 µg/mL amounted to 40%, the mortality at 100 µg/mL was found to be 95% and the mortality at 200 µg/mL is 100%.
Regarding `O=C1CCC(=O)N1Cc1ccc(C2COC(c3c(F)cccc3F)=N2)cc1` (stereo not drawn) [Compound R1-9], in experiment [1], the mortality at 10 µg/mL was 35%, the mortality at 100 µg/mL came to 80% and the mortality at 200 µg/mL is 85%. Also, in experiment [2], the mortality at 10 µg/mL was 50%, the mortality at 100 µg/mL came to 70% and the mortality at 200 µg/mL amounted to 95%.
Turning to `O=C1c2ccccc2C(=O)N1Cc1ccc(C2COC(c3c(F)cccc3F)=N2)cc1` (stereo not drawn) [Compound R1-10], in experiment [1], the “acaricidal activity compared with etoxazole” value is recorded as “higher acaricidal activity than etoxazole”, the mortality at 0.01 µg/mL came to 40%, the mortality at 0.05 µg/mL turned out to be 55% and the mortality at 0.1 µg/mL amounted to 70%. Moreover, in experiment [1], the mortality at 1 µg/mL amounted to 80%, the mortality at 10 µg/mL is 95%, the mortality at 100 µg/mL came out at 100% and the mortality at 200 µg/mL came to 100%. In experiment [2], the mortality at 0.01 µg/mL amounted to 40%, the mortality at 0.05 µg/mL is 65%, the mortality at 0.1 µg/mL worked out at 75% and the mortality at 1 µg/mL came out at 85%. Further, in experiment [2], the mortality at 10 µg/mL came out at 90%, the mortality at 100 µg/mL stood at 100% and the mortality at 200 µg/mL is 100%. In experiment [2] (relative to etoxazole), the “activity on mite eggs, times that of etoxazole” value turned out to be 10 times.
Regarding `Fc1cccc(F)c1C1=NC(c2ccc(Cn3cccn3)cc2)CO1` (stereo not drawn) [Compound R1-12], in experiment [1], the mortality at 10 µg/mL came out at 40%, the mortality at 100 µg/mL came to 70% and the mortality at 200 µg/mL was determined as 100%. In experiment [2], the mortality at 10 µg/mL was determined as 50%, the mortality at 100 µg/mL is 80% and the mortality at 200 µg/mL worked out at 90%.
Regarding `Fc1cccc(F)c1C1=NC(c2ccc(CN3CCc4ccccc4C3)cc2)CO1` (stereo not drawn) [Compound R1-13], in experiment [1], the mortality at 1 µg/mL was 40%, the mortality at 10 µg/mL stood at 70%, the mortality at 100 µg/mL is 88% and the mortality at 200 µg/mL amounted to 100%. In experiment [2], the mortality at 1 µg/mL was determined as 60%, the mortality at 10 µg/mL was 90%, the mortality at 100 µg/mL came out at 100% and the mortality at 200 µg/mL is 100%.
For the molecule `Fc1cccc(F)c1C1=NC(c2ccc(CN3CCc4ccccc43)cc2)CO1` (stereo not drawn) [Compound R1-14], in experiment [1], the mortality at 1 µg/mL came out at 30%, the mortality at 10 µg/mL was determined as 70%, the mortality at 100 µg/mL is 95% and the mortality at 200 µg/mL was 100%. Moreover, in experiment [2], the mortality at 1 µg/mL worked out at 40%, the mortality at 10 µg/mL is 70%, the mortality at 100 µg/mL is 95% and the mortality at 200 µg/mL stood at 100%.
In the case of `Fc1cccc(F)c1C1=NC(c2ccc(Cn3ccc4ccccc43)cc2)CO1` (stereo not drawn) [Compound R1-15], in experiment [1], the “acaricidal activity compared with etoxazole” value is “higher acaricidal activity than etoxazole”, the mortality at 0.01 µg/mL is 35%, the mortality at 0.05 µg/mL was determined as 50% and the mortality at 0.1 µg/mL came out at 65%. Besides, in experiment [1], the mortality at 1 µg/mL amounted to 80%, the mortality at 10 µg/mL stood at 90%, the mortality at 100 µg/mL came out at 100% and the mortality at 200 µg/mL is 100%. In experiment [2], the mortality at 0.01 µg/mL is 35%, the mortality at 0.05 µg/mL came out at 65%, the mortality at 0.1 µg/mL was found to be 80% and the mortality at 1 µg/mL was 90%. For the same molecule, in experiment [2], the mortality at 10 µg/mL came to 100%, the mortality at 100 µg/mL was determined as 100% and the mortality at 200 µg/mL is 100%.
Turning to `Cc1ccc2c(ccn2Cc2ccc(C3COC(c4c(F)cccc4F)=N3)cc2)c1` (stereo not drawn) [Compound R1-16], in experiment [1], the mortality at 1 µg/mL was found to be 50%, the mortality at 10 µg/mL stood at 65%, the mortality at 100 µg/mL was 100% and the mortality at 200 µg/mL was determined as 100%. Further, in experiment [2], the mortality at 1 µg/mL stood at 50%, the mortality at 10 µg/mL is 70%, the mortality at 100 µg/mL was 100% and the mortality at 200 µg/mL came out at 100%.
Consider `Cc1ccc2ccn(Cc3ccc(C4COC(c5c(F)cccc5F)=N4)cc3)c2c1` (stereo not drawn) [Compound R1-17], for which, in experiment [1], the mortality at 1 µg/mL amounted to 20%, the mortality at 10 µg/mL was 40%, the mortality at 100 µg/mL amounted to 100% and the mortality at 200 µg/mL is 100%. In experiment [2], the mortality at 1 µg/mL is 40%, the mortality at 10 µg/mL was determined as 65%, the mortality at 100 µg/mL stood at 100% and the mortality at 200 µg/mL was found to be 100%.
For `Cc1cn(Cc2ccc(C3COC(c4ccccc4F)=N3)cc2)c2ccccc12` (stereo not drawn) [Compound R1-19], in experiment [1], the “acaricidal activity compared with etoxazole” value is listed as “higher acaricidal activity than etoxazole”.

(Values after patent US12588678B2, “Oxazoline compound, synthesis method therefor and application thereof” (NANKAI UNIVERSITY, priority 2019, dated 2026).)
